The text below walks through data of patent publication US10398659B2, “Adjuvant chemotherapy for anaplastic gliomas” (OKLAHOMA MEDICAL RESEARCH FOUNDATION, priority 2008, dated 2019).

Where a name gives a salt, the structure may show the parent alone.

The test system of one data set is iNOS. In words: iNOS protein expression in C6 cells. Type of data set: cell-based, rat. The conditions noted are these: 100 μM. The source says:
(§1) The inventors then examined iNOS and VEGF protein expressions in the 2,4-ds-PBN treated C6 cells.

Another data set has as its system C6 cells. In words: cell proliferation. The conditions noted are these: concentration dependence. Type of data set: cell-based, rat.
A short description of data set [1]: monitoring of adverse effects and toxicity in treated glioma rats. Type of data set: in vivo. The source says:
. n=15 for 2,4-ds-PBN-treated rats, and n=5 for non-treated rats) in 2,4-ds-PBN-treated rats (see FIG. 5). Rats treated with 2,4-ds-PBN achieved >80% survival over the 40 day study period (n=15), compared to non-treated rats (n=5). […] Gross signs of adverse effects that were monitored included weight loss, ruffling of fur, and behavioural and postural changes.

The test system of another data set is C6 glioma. Description: intracerebral C6 rat glioma cell implantation model, MR imaging. Type of data set: in vivo. Here is the method: The inventors used an intracerebral C6 rat glioma cell implantation method, widely accepted by the glioma research field, as a good model for gliomas. To induce glioma in rats, C6 rat glioma cells (10^6 cells in 10 μL were injected into the cerebral cortex of male Fischer 344 rats. Fifteen days later, 2,4-ds-PBN was orally administered through drinking water (0.015%, 17.5 mg/kg). The efficacy of 2,4-ds-PBN was assessed with the tumor growth patterns and growth rates by using magnetic resonance (MR) imaging (T1/T2-weighted imaging) methods over the course of a month.
(§2) FIG. 4 represents a series of MR images taken over a period of 25 days for an untreated control group and representative data (best-case, average effect, and worst-case) for 2,4-ds-PBN-treated rats (via drinking water administration at a dose of 17 mg/kg/day). […] Rats treated with 2,4-ds-PBN achieved >80% survival over the 40 day study period (n=15), compared to non-treated rats (n=5). […] Gross signs of adverse effects that were monitored included weight loss, ruffling of fur, and behavioural and postural changes.

Data set [2] has as its system pro-caspase 3 and pro-caspase 9. Description: Western blots of apoptotic factors in C6 cells. Type of data set: cell-based, rat. The conditions noted are these: increasing concentrations. The protocol:
FIG. 6: Western blots of rat C6 cells with increasing concentrations of 2,4-ds-PBN. Increasing levels of apoptotic factors pro-caspase 3 and pro-caspase 9 are shown, relative to actin.
as §2

For data set [3] the following is noted: in vivo; cited from earlier work.
A further data set can be described thus: solubility in water. Type of data set: physicochemical. The conditions noted are these: free acid. The source says:
The product so formed is the free acid and is characterized by a molecular weight of […]. It is a white powdery material which decomposes upon heating. […]; 8.836 ppm (d, 8.4 Hz); 8.839 ppm (d, 1.7 Hz); 8.774 ppm (s).

In the next data set the test system is VEGF. In words: VEGF protein expression in C6 cells. Type of data set: cell-based, rat. The conditions noted are these: 5 mM.
From the text: as §1

For data set [4] the following is noted: rats; cited from earlier work.
The next data set relates to C6 gliomas. The conditions noted are these: cited from earlier work.

Regarding `CC(C)(C)[N+]([O-])=Cc1ccc(S(=O)(=O)O)cc1S(=O)(=O)O` [2,4-ds-PBN, 2,4-disulfonyl phenyl tert-butyl nitrone], in the data set on iNOS, the iNOS expression decrease result is given as “approximately 75%”. Moreover, in the data set on C6 cells, the “inhibition of cell proliferation” value is “little effect”. The toxicity effects result in data set [1] (rat, in vivo) was “No toxicity effects were detected”. In addition, the “side effects during the treatment period” value in [1] (weight loss, ruffling of fur, behavioural and postural changes monitored) is reported as “No side effects were observed”. For the same compound, in the data set with C6 glioma (17 mg/kg/day via drinking water from day 15 after cell implantation, vs non-treated rats, n=15 vs n=5), the “C6 glioma tumor volumes decrease” value is on record as above 15 fold. For the same compound, the “survival over the 40 day study period” value in the data set with C6 glioma (2,4-ds-PBN in drinking water, n=15, compared to non-treated rats (n=5)) is above 80%. Also, in data set [2], the “apoptotic effect (pro-caspase 3, pro-caspase 9 levels relative to actin)” value is listed as “pro-apoptotic as concentration increases”. Also, the blood-brain-barrier penetration entry in data set [3] was “cannot easily pass through the BBB”. Moreover, the solubility in “solubility in water” was above 1000 mg/mL. The VEGF expression reduction in the data set on VEGF is 50%.

As to `O=NN(CCCl)C(=O)NC1CCCCC1` [Lomustine, 1-(2-chloroethyl)-3-cyclohexyl-1-nitrosourea], the blood-brain-barrier penetration entry in data set [3] was “crosses the blood brain barrier”.

In the data set with iNOS, `CC(C)(C)[N+]([O-])=Cc1ccccc1` [PBN, phenyl N-tert-butyl nitrone] registered an iNOS expression decrease of 5%. In addition, the half-life result in [4] is given as “about 132 minutes”. Also, in the data set with C6 cells, the “inhibition of cell proliferation” value was “significantly inhibited cell proliferation in a concentration dependent manner”. The blood-brain-barrier penetration entry in data set [3] is “easily penetrate the BBB”. The “effect on tumor growth, pretreatment” value with C6 gliomas (PBN administration as a pretreatment, rat C6 glioma) is “decrease in growth rate and tumor regression”. For the same compound, the “effect on tumor regression, post-treatment” value in the data set with C6 gliomas (post-treatment of PBN, compared with pre-treatment) is recorded as “little effect for tumor regression”.

Turning to `CC(C)(C)/[N+]([O-])=C/c1ccccc1S(=O)(=O)O` [S-PBN], the “inhibition of cell proliferation” value with C6 cells is reported as “little effect”.

`CC[C@]1(O)C[C@H]2CN(CCc3c([nH]c4ccccc34)[C@@](C(=O)OC)(c3cc4c(cc3OC)N(C=O)[C@H]3[C@@](O)(C(=O)OC)[C@H](OC(C)=O)[C@]5(CC)C=CCN6CC[C@]43[C@@H]65)C2)C1` [Vincristine, vincaleukoblastine, a 22-oxo-, sulfate (1:1) (salt)]: in data set [3], the blood-brain-barrier penetration result was “does not appear to cross the blood brain barrier”.

One may read the solubility as the dissolved amount per volume that the medium holds.
